In patent US20220088024A1, “METHODS FOR TREATING CANCER USING TOZADENANT” (Biotie Therapies, Inc., priority 2018, published 2022):
Like-named read-outs stand apart in the source and are kept apart here.

Assay: Example 11: plasma pharmacokinetics (toxicokinetics) of tozadenant in mice after twice daily oral administration
Type: in vivo, Crl:CD1(ICR) mice
Set-up: Cmax/D / AUC0-24/D: unit not given beside the values
Details: for AUC(0-t) / AUC / Cmax / Tmax / AUC(0-inf) / half-life: Crl:CD1(ICR), mouse, plasma
Method: The plasma pharmacokinetics and exposure levels of tozadendant have been documented in mice after oral administration, the same route of administration as tozadenant was dosed in the oncology efficacy studies.
The PK of tozadenant in mice was compared across a range of doses and dose frequencies. […]
Groups of mice of the Crl:CD1(ICR) strain were dosed, as follows:
The vehicle for the tozadenant in this mouse PK study was 1.6% (w/v) Avicel RC-591 (FMC), 0.2% (v/v) Tween 80, 0.18% (w/v) methylparaben and 0.02% (w/v) propylparaben in reverse osmosis water, pH 6.0±0.3. The 1.6% (w/v) Avicel RC-591 (FMC) was supplied by Biopolymer International, Brussels, Belgium. The 0.2% (v/v) Tween 80, 0.18% (w/v) methylparaben and 0.02% (w/v) propylparaben in reverse osmosis water, pH 6.0±0.3 was supplied by and Sigma-Aldrich Co Ltd, Poole, UK. This is the same formulation used for the mouse oncology model oral dosing.
The test article was administered orally by gavage, as follows:
Groups 1 to 4: Twice for one day (0 and 8 hours apart relative to initial dose)
Group 5: Twice for one day (0 and 12 hours apart relative to initial dose)
Blood samples for toxicokinetics (0.25 mL nominal) were taken from all toxicokinetic animals (subgroup 2), as follows:
For animals dosed at 0, 8 or 12 hour intervals, sampling time with respect to dose was symmetrical in each animal, for example, if an animal was sampled 0.5 hours after the first dose, it was sampled 0.5 hours after the second dose. The second sample obtained from each animal was collected under terminal anaesthesia.
Samples were taken from the orbital sinus (with the exception of Group 3 animals at the 10 hour bleed, which were taken by cardiac puncture) under isoflurane anaesthesia into K2EDTA. Samples were gently inverted to ensure mixing with anticoagulant, placed on a blood roller for at least one minute and then placed in a Kryorack until centrifugation.
Centrifugation was carried out at approximately 4-8° C. within one hour of collection. The resultant plasma from all samples was separated, transferred to uniquely labelled clear polypropylene tubes and frozen immediately at approximately <−10 to −30° C. Samples were analyzed at Covance.
Tozadenant was quantitated using protein precipitation followed by liquid chromatography mass spectrometry technique for quantification. This bioanalytical method was previously established and validated for tozadenant in mouse plasma.

[1] = Group 1, Male, 100 mg/kg/day (50 mg/kg/dose), oral, dosing at 0, 8 hr
[2] = Group 2, Male, 300 mg/kg/day (150 mg/kg/dose), oral, dosing at 0, 8 hr
[3] = Group 3, Male, 1000 mg/kg/day (500 mg/kg/dose), oral, dosing at 0, 8 hr
[4] = Group 4, 2000 mg/kg/day, dosing at 0, 8 hr
[5] = Group 4, Female, 2000 mg/kg/day (1000 mg/kg/dose), oral, dosing at 0, 8 hr
[6] = Group 4, Male, 2000 mg/kg/day (1000 mg/kg/dose), oral, dosing at 0, 8 hr
[7] = Group 5, 2000 mg/kg/day, dosing at 0, 12 hr
[8] = Group 5, Female, 2000 mg/kg/day (1000 mg/kg/dose), oral, dosing at 0, 12 hr
[9] = Group 5, Male, 2000 mg/kg/day (1000 mg/kg/dose), oral, dosing at 0, 12 hr

SMILES: COc1ccc(N2CCOCC2)c2sc(NC(=O)N3CCC(C)(O)CC3)nc12 [SYN-115, 4-hydroxy-4-methyl-piperidine-1-carboxylic acid (4-methoxy-7-morpholin-4-yl-benzothiazol-2-yl)-amide]
- AUC0-24/D [1]: 35.2
- Cmax/D [1]: 7.64
- AUC0-24/D [2]: 33.0
- Cmax/D [2]: 5.73
- AUC0-24/D [3]: 29.9
- Cmax/D [3]: 3.61
- Female:Male Ratio AUC0-24 [4]: 2.70
- Female:Male Ratio Cmax [4]: 2.38
- AUC0-24/D [5]: 58.0
- Cmax/D [5]: 6.05
- AUC0-24/D [6]: 21.5
- Cmax/D [6]: 2.54
- Female:Male Ratio AUC0-24 [7]: 2.02
- Female:Male Ratio Cmax [7]: 1.28
- AUC0-24/D [8]: 31.4
- Cmax/D [8]: 4.12
- AUC0-24/D [9]: 15.6
- Cmax/D [9]: 3.22
- AUC(0-t) (female, po, 2000 mg/kg/day, Group 4, Female, 2000 mg/kg/day (1000 mg/kg/dose), oral, dosing at 0, 8 hr, read-out: AUC0-8): 35400 ng·h/mL
- AUC(0-t) (female, po, 2000 mg/kg/day, Group 4, Female, 2000 mg/kg/day (1000 mg/kg/dose), oral, dosing at 0, 8 hr, read-out: AUC0-24): 116000 ng·h/mL
- AUC (female, po, 2000 mg/kg/day, Group 4, Female, 2000 mg/kg/day (1000 mg/kg/dose), oral, dosing at 0, 8 hr, read-out: AUC8-24): 80600 ng·h/mL
- Cmax (female, po, 2000 mg/kg/day, Group 4, Female, 2000 mg/kg/day (1000 mg/kg/dose), oral, dosing at 0, 8 hr, read-out: Cmax): 12100 ng/mL
- Tmax (female, po, 2000 mg/kg/day, Group 4, Female, 2000 mg/kg/day (1000 mg/kg/dose), oral, dosing at 0, 8 hr, read-out: Tmax): 14 h
- AUC(0-t) (female, po, 2000 mg/kg/day, Group 5, Female, 2000 mg/kg/day (1000 mg/kg/dose), oral, dosing at 0, 12 hr, read-out: AUC0-12): 35500 ng·h/mL
- AUC(0-t) (female, po, 2000 mg/kg/day, Group 5, Female, 2000 mg/kg/day (1000 mg/kg/dose), oral, dosing at 0, 12 hr, read-out: AUC0-24): 62700 ng·h/mL
- AUC (female, po, 2000 mg/kg/day, Group 5, Female, 2000 mg/kg/day (1000 mg/kg/dose), oral, dosing at 0, 12 hr, read-out: AUC12-24): 27200 ng·h/mL
- Cmax (female, po, 2000 mg/kg/day, Group 5, Female, 2000 mg/kg/day (1000 mg/kg/dose), oral, dosing at 0, 12 hr, read-out: Cmax): 8240 ng/mL
- Tmax (female, po, 2000 mg/kg/day, Group 5, Female, 2000 mg/kg/day (1000 mg/kg/dose), oral, dosing at 0, 12 hr, read-out: Tmax): 1.2 h
- Tmax (female, po, 2000 mg/kg/day, females, 0, 12 hour dosing, read-out: Tmax (following the first dose)): 1.2 h
- Tmax (female, po, 2000 mg/kg/day, females, 2000 mg/kg/day, 0, 8 hours dosing, read-out: Tmax (after the second dose)): 6 h
- AUC (male, oral, 100 mg/kg/day, mice, 100 mg/kg/day, read-out: Average AUC): 3520 ng·h/mL
- AUC(0-t) (male, po, 100 mg/kg/day, Group 1, Male, 100 mg/kg/day (50 mg/kg/dose), oral, dosing at 0, 8 hr, read-out: AUC0-8): 1950 ng·h/mL
- AUC(0-t) (male, po, 100 mg/kg/day, Group 1, Male, 100 mg/kg/day (50 mg/kg/dose), oral, dosing at 0, 8 hr, read-out: AUC0-24): 3520 ng·h/mL
- AUC (male, po, 100 mg/kg/day, Group 1, Male, 100 mg/kg/day (50 mg/kg/dose), oral, dosing at 0, 8 hr, read-out: AUC8-24): 1570 ng·h/mL
- Cmax (male, po, 100 mg/kg/day, Group 1, Male, 100 mg/kg/day (50 mg/kg/dose), oral, dosing at 0, 8 hr, read-out: Cmax): 764 ng/mL
- Tmax (male, po, 100 mg/kg/day, Group 1, Male, 100 mg/kg/day (50 mg/kg/dose), oral, dosing at 0, 8 hr, read-out: Tmax): 9 h
- Tmax (male, po, 100 mg/kg/day, mice, 100 mg/kg/day (50 mg/kg/dose×2) oral, 1 hour after the second dose, read-out: Average Tmax): 9 h
- Cmax (male, po, 100 mg/kg/day, mice, 100 mg/kg/day (50 mg/kg/dose×2) oral, read-out: Average Cmax): 764 ng/mL
- AUC(0-t) (male, po, 100 mg/kg/day, mice, 100 mg/kg/day (50 mg/kg/dose×2) oral, read-out: Average daily AUC0-24): 3520 ng·h/mL
- AUC(0-inf) (male, po, 300 mg/kg/day, Group 2, Male, 300 mg/kg/day (150 mg/kg/dose), oral, dosing at 0, 8 hr): 9930 ng·h/mL
- AUC(0-t) (male, po, 300 mg/kg/day, Group 2, Male, 300 mg/kg/day (150 mg/kg/dose), oral, dosing at 0, 8 hr, read-out: AUC0-8): 5030 ng·h/mL
- AUC(0-t) (male, po, 300 mg/kg/day, Group 2, Male, 300 mg/kg/day (150 mg/kg/dose), oral, dosing at 0, 8 hr, read-out: AUC0-24): 9900 ng·h/mL
- AUC (male, po, 300 mg/kg/day, Group 2, Male, 300 mg/kg/day (150 mg/kg/dose), oral, dosing at 0, 8 hr, read-out: AUC8-24): 4870 ng·h/mL
- Cmax (male, po, 300 mg/kg/day, Group 2, Male, 300 mg/kg/day (150 mg/kg/dose), oral, dosing at 0, 8 hr, read-out: Cmax): 1720 ng/mL
- Tmax (male, po, 300 mg/kg/day, Group 2, Male, 300 mg/kg/day (150 mg/kg/dose), oral, dosing at 0, 8 hr, read-out: Tmax): 8.8 h
- half-life (male, po, 300 mg/kg/day, Group 2, Male, 300 mg/kg/day (150 mg/kg/dose), oral, dosing at 0, 8 hr, read-out: t1/2 (converted)): 0.971 h
- AUC(0-t) (male, po, 1000 mg/kg/day, Group 3, Male, 1000 mg/kg/day (500 mg/kg/dose), oral, dosing at 0, 8 hr, read-out: AUC0-8): 13800 ng·h/mL
- AUC(0-t) (male, po, 1000 mg/kg/day, Group 3, Male, 1000 mg/kg/day (500 mg/kg/dose), oral, dosing at 0, 8 hr, read-out: AUC0-24): 29900 ng·h/mL
- AUC (male, po, 1000 mg/kg/day, Group 3, Male, 1000 mg/kg/day (500 mg/kg/dose), oral, dosing at 0, 8 hr, read-out: AUC8-24): 16100 ng·h/mL
- Cmax (male, po, 1000 mg/kg/day, Group 3, Male, 1000 mg/kg/day (500 mg/kg/dose), oral, dosing at 0, 8 hr, read-out: Cmax): 3610 ng/mL
- Tmax (male, po, 1000 mg/kg/day, Group 3, Male, 1000 mg/kg/day (500 mg/kg/dose), oral, dosing at 0, 8 hr, read-out: Tmax): 10.2 h
- Tmax (male, po, 2000 mg/kg/day, 0, 8 hours dosing, all groups except females at 2000 mg/kg/day, read-out: Tmax (post dose, following the second dose)): 0.8 to 2.2 h
- AUC(0-inf) (male, po, 2000 mg/kg/day, Group 4, Male, 2000 mg/kg/day (1000 mg/kg/dose), oral, dosing at 0, 8 hr): 43100 ng·h/mL
- AUC(0-t) (male, po, 2000 mg/kg/day, Group 4, Male, 2000 mg/kg/day (1000 mg/kg/dose), oral, dosing at 0, 8 hr, read-out: AUC0-8): 20500 ng·h/mL
- AUC(0-t) (male, po, 2000 mg/kg/day, Group 4, Male, 2000 mg/kg/day (1000 mg/kg/dose), oral, dosing at 0, 8 hr, read-out: AUC0-24): 43000 ng·h/mL
- AUC (male, po, 2000 mg/kg/day, Group 4, Male, 2000 mg/kg/day (1000 mg/kg/dose), oral, dosing at 0, 8 hr, read-out: AUC8-24): 22500 ng·h/mL
- Cmax (male, po, 2000 mg/kg/day, Group 4, Male, 2000 mg/kg/day (1000 mg/kg/dose), oral, dosing at 0, 8 hr, read-out: Cmax): 5080 ng/mL
- Tmax (male, po, 2000 mg/kg/day, Group 4, Male, 2000 mg/kg/day (1000 mg/kg/dose), oral, dosing at 0, 8 hr, read-out: Tmax): 9 h
- half-life (male, po, 2000 mg/kg/day, Group 4, Male, 2000 mg/kg/day (1000 mg/kg/dose), oral, dosing at 0, 8 hr, read-out: t1/2 (converted)): 2.02 h
- AUC(0-inf) (male, po, 2000 mg/kg/day, Group 5, Male, 2000 mg/kg/day (1000 mg/kg/dose), oral, dosing at 0, 12 hr): 31300 ng·h/mL
- AUC(0-t) (male, po, 2000 mg/kg/day, Group 5, Male, 2000 mg/kg/day (1000 mg/kg/dose), oral, dosing at 0, 12 hr, read-out: AUC0-12): 17800 ng·h/mL
- AUC(0-t) (male, po, 2000 mg/kg/day, Group 5, Male, 2000 mg/kg/day (1000 mg/kg/dose), oral, dosing at 0, 12 hr, read-out: AUC0-24): 31100 ng·h/mL
- AUC (male, po, 2000 mg/kg/day, Group 5, Male, 2000 mg/kg/day (1000 mg/kg/dose), oral, dosing at 0, 12 hr, read-out: AUC12-24): 13300 ng·h/mL
- Cmax (male, po, 2000 mg/kg/day, Group 5, Male, 2000 mg/kg/day (1000 mg/kg/dose), oral, dosing at 0, 12 hr, read-out: Cmax): 6440 ng/mL
- Tmax (male, po, 2000 mg/kg/day, Group 5, Male, 2000 mg/kg/day (1000 mg/kg/dose), oral, dosing at 0, 12 hr, read-out: Tmax): 1.1 h
- half-life (male, po, 2000 mg/kg/day, Group 5, Male, 2000 mg/kg/day (1000 mg/kg/dose), oral, dosing at 0, 12 hr, read-out: t1/2 (converted)): 1.36 h
- Tmax (male, po, 2000 mg/kg/day, males, 0, 12 hour dosing, read-out: Tmax (following the first dose)): 1.1 h
- half-life (male, po, mice, all dose levels where calculated, read-out: Half-lives): 1 to 2 h
